Data from ChEMBL document CHEMBL1938264, “Novel 3,4-isoxazolediamides as potent inhibitors of chaperone heat shock protein 90” (J Med Chem, 2011).
Calls of active or inactive are those of the source. No cut-off for these calls is given here.

Columns and labels:
[1] = target: T1, Heat shock protein HSP 90-beta (Homo sapiens, UniProt P08238); assay: Binding affinity to Hsp90 after 4 hrs by fluorescence polarization assay
NCI-H460 = assay: Cytotoxicity against human NCI-H460 after 72 hrs by sulforhodamine B assay; assay type: functional, cell-based; settings: NCI-H460, 72 h
[2] = target: T1, Heat shock protein HSP 90-beta; assay: Inhibition of Hsp90 in human A431 cells assessed as reduction in EGFR protein expression after 24 hrs by Western blot analysis; assay type: cell-based; settings: A-431
[3] = target: T1, Heat shock protein HSP 90-beta; assay: Inhibition of Hsp90 in human A431 cells assessed as increase in Hsp70 protein expression at 0.11 to 0.8 uM after 24 hrs by Western blot analysis; assay type: cell-based; settings: A-431
[4] = target: T1, Heat shock protein HSP 90-beta; assay: Inhibition of Hsp90 in human A431 cells assessed as reduction in CDK4 protein expression after 24 hrs by Western blot analysis; assay type: cell-based; settings: A-431
[5] = target: T1, Heat shock protein HSP 90-beta; assay: Inhibition of Hsp90 in human A431 cells assessed as reduction in Akt protein expression after 24 hrs by Western blot analysis; assay type: cell-based; settings: A-431
[6] = target: T1, Heat shock protein HSP 90-beta; assay: Inhibition of Hsp90 in human A431 cells assessed as increase in Hsp70 protein expression at 0.01 to 0.814 uM after 24 hrs by Western blot analysis; assay type: cell-based; settings: A-431
Mus musculus [7] = assay: Toxicity in human A431 cells xenografted CD1 Harlan mouse assessed as body weight loss at 60 mg/kg, ip qd administered for 5 days; assay type: organism-based, A-431; design: dose 60 mg/kg, route intraperitoneal; settings: in vivo, 120 h
Mus musculus [8] = assay: Degradation of CDK4 in human A431 cells xenografted in CD1 Harlan mouse at 60 mg/kg, ip qd administered for 5 days measured 2 hrs post-last dose by Western blot analysis; assay type: functional, organism-based; design: dose 60 mg/kg; settings: A-431
Mus musculus [9] = assay: Degradation of Akt in human A431 cells xenografted in CD1 Harlan mouse at 60 mg/kg, ip qd administered for 5 days measured 2 hrs post-last dose by Western blot analysis; assay type: functional, organism-based; design: dose 60 mg/kg; settings: A-431
Mus musculus [10] = assay: Degradation of EGFR in human A431 cells xenografted in CD1 Harlan mouse at 60 mg/kg, ip qd administered for 5 days measured 2 hrs post-last dose by Western blot analysis; assay type: functional, organism-based; design: dose 60 mg/kg; settings: A-431
Mus musculus [11] = assay: Increase of Hsp70 expression in human A431 cells xenografted in CD1 Harlan mouse at 60 mg/kg, ip qd administered for 5 days measured 2 hrs post-last dose by Western blot analysis; assay type: functional, organism-based; design: dose 60 mg/kg; settings: A-431
A-431 = assay: Antitumor activity against human A431 cells xenografted in CD1 Harlan mouse assessed as tumor volume inhibition at 60 mg/kg, ip qd administered for 5 days; assay type: functional; settings: A-431, ip, 120 h, route intraperitoneal
[12] = Toxicity in human A431 cells xenografted ip dosed CD1 Harlan mouse; assay type: organism-based, A-431; settings: in vivo
[13] = target: T1, Heat shock protein HSP 90-beta; assay: Inhibition of Hsp90 in human A431 cells assessed as increase in Hsp70 protein expression at 0.0031 to 0.8 uM after 24 hrs by Western blot analysis; assay type: cell-based; settings: A-431
[14] = target: T1, Heat shock protein HSP 90-beta; assay: Inhibition of Hsp90 in human A431 cells assessed as increase in Hsp70 protein expression at 0.011 to 0.9 uM after 24 hrs by Western blot analysis; assay type: cell-based; settings: A-431
[15] = target: T1, Heat shock protein HSP 90-beta; assay: Inhibition of Hsp90 in human A431 cells assessed as increase in Hsp70 protein expression at 0.00493 to 1.2 uM after 24 hrs by Western blot analysis; assay type: cell-based; settings: A-431
[16] = target: T1, Heat shock protein HSP 90-beta; assay: Inhibition of Hsp90 in human A431 cells assessed as increase in Hsp70 protein expression at 0.075 to 1.2 uM after 24 hrs by Western blot analysis; assay type: cell-based; settings: A-431

T1 sequence (P08238 whole entry): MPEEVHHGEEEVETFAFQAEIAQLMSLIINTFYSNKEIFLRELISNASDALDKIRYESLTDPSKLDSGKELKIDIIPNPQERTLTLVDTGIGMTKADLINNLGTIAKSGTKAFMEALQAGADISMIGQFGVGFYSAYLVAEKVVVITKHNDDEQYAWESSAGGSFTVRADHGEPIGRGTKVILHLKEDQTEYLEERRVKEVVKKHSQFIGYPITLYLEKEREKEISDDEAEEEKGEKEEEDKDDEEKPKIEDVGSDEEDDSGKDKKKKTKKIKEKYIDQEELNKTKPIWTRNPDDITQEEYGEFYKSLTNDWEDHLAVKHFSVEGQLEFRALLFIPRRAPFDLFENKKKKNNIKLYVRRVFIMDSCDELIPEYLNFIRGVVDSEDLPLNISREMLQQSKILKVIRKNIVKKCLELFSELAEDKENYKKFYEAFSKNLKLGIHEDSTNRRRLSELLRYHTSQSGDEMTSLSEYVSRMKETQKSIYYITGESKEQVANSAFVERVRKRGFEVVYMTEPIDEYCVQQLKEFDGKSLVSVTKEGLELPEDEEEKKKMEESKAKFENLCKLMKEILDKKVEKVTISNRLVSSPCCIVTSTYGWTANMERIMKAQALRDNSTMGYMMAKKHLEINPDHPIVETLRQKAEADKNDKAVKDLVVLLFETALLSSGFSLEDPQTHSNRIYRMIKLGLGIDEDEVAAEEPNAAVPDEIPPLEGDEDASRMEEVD

Structure (SMILES)	IC50 [1] [nM]	inhibition [2]	inhibition [3]	inhibition [4]	inhibition [5]	inhibition [6]	inhibition [13]	inhibition [14]	inhibition [15]	IC50 (NCI-H460) [nM]	Activity (Mus musculus [7]) [%]	Activity (Mus musculus [8])	Activity (Mus musculus [9])	Activity (Mus musculus [10])	Activity (Mus musculus [11])	inhibition in vivo at 60 mg/kg (A-431) [%]	MTD [12] [mg/kg]	inhibition [16]
CCNC(=O)c1noc(-c2cc(C(C)C)c(O)cc2O)c1NC(=O)c1cc(CN2CCOCC2)on1	40									200	7	Active	Active	Active	Active	48	60	
CCNC(=O)c1noc(-c2cc(C(C)C)c(O)cc2O)c1NC(=O)C1CCCCC1	190	Dose-dependent effect		Dose-dependent effect	Dose-dependent effect				Active	16								
CCNC(=O)c1noc(-c2cc(C(C)C)c(O)cc2O)c1NC(=O)c1ccc(CN2CCOCC2)cc1	71	Dose-dependent effect		Dose-dependent effect	Dose-dependent effect					95	2					33	60	Active

The remaining compounds from weak to strong by IC50 [1], led by results:

IC50 [1] [nM]	inhibition [2]	inhibition [3]	inhibition [4]	inhibition [5]	inhibition [6]	inhibition [13]	inhibition [14]	inhibition [15]	Structure (SMILES)	IC50 (NCI-H460) [nM]	Activity (Mus musculus [7]) [%]	Activity (Mus musculus [8])	Activity (Mus musculus [9])	Activity (Mus musculus [10])	Activity (Mus musculus [11])	inhibition in vivo at 60 mg/kg (A-431) [%]	MTD [12] [mg/kg]	inhibition [16]
84	Dose-dependent effect	Active	Dose-dependent effect	Dose-dependent effect					CCNC(=O)c1noc(-c2cc(C(C)C)c(O)cc2O)c1NC(=O)c1sccc1C	17								
41	Dose-dependent effect		Dose-dependent effect	Dose-dependent effect		Active			CCNC(=O)c1noc(-c2cc(C(C)C)c(O)cc2O)c1NC(=O)C(C)(C)C	24								
24	Dose-dependent effect		Dose-dependent effect	Dose-dependent effect			Active		CCNC(=O)c1noc(-c2cc(C(C)C)c(O)cc2O)c1NC(=O)[C@H]1CC[C@@H](OC)CC1	13								
20	Dose-dependent effect		Dose-dependent effect	Dose-dependent effect	Active				CCNC(=O)c1noc(-c2cc(C(C)C)c(O)cc2O)c1NC(=O)c1cc(CC)on1	22								
